Experimental findings from patent publication US10865208B2, “ATG7 inhibitors and the uses thereof” (Millennium Pharmaceuticals, Inc., priority 2016, dated 2020) are described below.

Some results are limits rather than exact numbers.

This assay concerns the target recombinant human His-ATG7 enzyme (Homo sapiens (Human), UniProt O95352). Description: ATG7 Enzyme Assay (HTRF/FRET, ATG3-GST and Flag-Gabarap). The assay is classed as biochemical. Conditions: for inhibition at 0.111 µM: Concentration 0.111 μM, read-out: Percent Inhibition. A digest of the protocol:
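0.15 nM His-ATG7 was reacted with 5 nM ATG3-GST, 5 nM Flag-Gabarap and 10 μM ATP in HEPES pH 7.5 containing MgCl2, GSH and TCEP for 105 min at 24° C, then stopped with EDTA/KF. Eu-anti-Flag and anti-GST-APC HTRF was read after 2 h. Results are given as single-concentration % inhibition or IC50.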

Sequence of recombinant human His-ATG7 enzyme (O95352 whole entry): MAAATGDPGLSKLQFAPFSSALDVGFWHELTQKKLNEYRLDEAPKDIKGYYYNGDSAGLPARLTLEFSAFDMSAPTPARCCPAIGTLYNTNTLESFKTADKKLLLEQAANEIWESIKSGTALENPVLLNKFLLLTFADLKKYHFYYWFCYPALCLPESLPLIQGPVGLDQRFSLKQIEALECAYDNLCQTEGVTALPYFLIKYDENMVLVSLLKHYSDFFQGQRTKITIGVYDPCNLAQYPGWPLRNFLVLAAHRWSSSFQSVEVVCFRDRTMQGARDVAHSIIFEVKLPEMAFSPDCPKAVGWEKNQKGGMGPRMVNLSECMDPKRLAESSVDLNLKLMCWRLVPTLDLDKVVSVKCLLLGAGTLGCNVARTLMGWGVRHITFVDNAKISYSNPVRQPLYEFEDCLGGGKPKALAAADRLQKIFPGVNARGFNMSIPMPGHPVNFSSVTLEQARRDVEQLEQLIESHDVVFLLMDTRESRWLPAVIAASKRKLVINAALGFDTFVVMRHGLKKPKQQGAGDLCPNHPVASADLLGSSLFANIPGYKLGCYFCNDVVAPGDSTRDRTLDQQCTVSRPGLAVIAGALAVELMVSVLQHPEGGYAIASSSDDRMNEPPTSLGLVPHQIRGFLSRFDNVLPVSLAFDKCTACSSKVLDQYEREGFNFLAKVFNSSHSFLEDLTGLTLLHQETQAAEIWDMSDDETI

A word on the IC50: it is the concentration needed to halve the response being measured. What is called inhibition is the share of the control response that was lost under treatment. In the case of `CSc1nn([C@H]2C[C@H](O)[C@H](COS(N)(=O)=O)O2)c2ncnc(N)c12` [Compound I-219, {(2S,3S,5R)-5-[4-amino-3-(methylsulfanyl)-1H-pyrazolo[3,4-d]pyrimidin-1-yl]-3-hydroxytetrahydrofuran-2-yl}methyl Sulfamate], the IC50 lay within 100 to 500 nM and the inhibition at 0.111 µM is 48%.
For the compound `CC(C)Sc1nn([C@H]2C[C@H](O)[C@H](COS(N)(=O)=O)O2)c2ncnc(N)c12` [Compound I-220, {(2S,3S,5R)-5-[4-amino-3-(isopropylsulfanyl)-1H-pyrazolo[3,4-d]pyrimidin-1-yl]-3-hydroxytetrahydrofuran-2-yl}methyl sulfamate], the IC50 lay within 50 to 100 nM and the inhibition at 0.111 µM came to 65%.
Taken in the same sequence, the figures for `Nc1ncnc2c1c(SCc1ccccc1)nn2[C@H]1C[C@H](O)[C@H](COS(N)(=O)=O)O1` [Compound I-221, {(2S,3S,5R)-5-[4-amino-3-(benzylsulfanyl)-1H-pyrazolo[3,4-d]pyrimidin-1-yl]-3-hydroxytetrahydrofuran-2-yl}methyl Sulfamate] were 100 to 500 nM and 26%.
On to `Nc1ncnc2c1c(Sc1ccc(Cl)cn1)nn2[C@H]1C[C@H](O)[C@H](COS(N)(=O)=O)O1` [Compound I-222, [(2S,3S,5R)-5-{4-amino-3-[(5-chloropyridin-2-yl)sulfanyl]-1H-pyrazolo[3,4-d]pyrimidin-1-yl}-3-hydroxytetrahydrofuran-2-yl]methyl sulfamate], for which the IC50 fell in the range of 50 to 100 nM and the inhibition at 0.111 µM worked out at 59%.
In the case of `Nc1ncnc2c1c(Sc1ccc(F)cc1)nn2[C@H]1C[C@H](O)[C@H](COS(N)(=O)=O)O1` [Compound I-223, [(2S,3S,5R)-5-{4-amino-3-[(4-fluorophenyl)sulfanyl]-1H-pyrazolo[3,4-d]pyrimidin-1-yl}-3-hydroxytetrahydrofuran-2-yl]methyl sulfamate], the IC50 fell in the range of 100 to 500 nM and the inhibition at 0.111 µM worked out at 35%.
For the compound `Nc1ncnc2c1c(Sc1cccc(Cl)c1)nn2[C@H]1C[C@H](O)[C@H](COS(N)(=O)=O)O1` [Compound I-224, [(2S,3S,5R)-5-{4-amino-3-[(3-chlorophenyl)sulfanyl]-1H-pyrazolo[3,4-d]pyrimidin-1-yl}-3-hydroxytetrahydrofuran-2-yl]methyl sulfamate], the IC50 is 100 to 500 nM and the inhibition at 0.111 µM was 39%.
Consider `COc1nn([C@H]2C[C@H](O)[C@H](COS(N)(=O)=O)O2)c2ncnc(N)c12` [Compound I-225, [(2S,3S,5R)-5-(4-amino-3-methoxy-1H-pyrazolo[3,4-d]pyrimidin-1-yl)-3-hydroxytetrahydrofuran-2-yl]methyl sulfamate], for which the IC50 was over 500 nM and the inhibition at 0.111 µM turned out to be 10%.
As for `Nc1ncnc2c1c(SCC(F)F)nn2[C@H]1C[C@H](O)[C@H](COS(N)(=O)=O)O1` [Compound I-227, [(2S,3S,5R)-5-{4-amino-3-[(2,2-difluoroethyl)sulfanyl]-1H-pyrazolo[3,4-d]pyrimidin-1-yl}-3-hydroxytetrahydrofuran-2-yl]methyl Sulfamate], the IC50 fell in the range of 100 to 500 nM and the inhibition at 0.111 µM was 48%.
